Experimental data as given in the NIST ThermoML archive (doi:10.1021/je0342116).
Numbers after ± are expanded uncertainties.

Test: activity coefficient (dimensionless); of the first substance listed, at infinite dilution; xn = mol fraction of the nth substance listed
Conditions: Liquid, Chromatography, x1 = 0

activity coefficient (249.97 K)	activity coefficient (270.03 K)	activity coefficient (290 K)	activity coefficient (310 K)	activity coefficient (330 K)	activity coefficient (249.96 K)	activity coefficient (270.04 K)	Structure (SMILES)
		3.7 ± 0.2	3.6 ± 0.2	3.4 ± 0.2	3.8 ± 0.2	3.7 ± 0.2	C=CC [propene] + CC(C)O
		4.4 ± 0.2	4.3 ± 0.2	4.2 ± 0.2	4.5 ± 0.2	4.5 ± 0.2	CCC [propane] + CC(C)O
		5.2 ± 0.2	5 ± 0.2	4.7 ± 0.2	5.4 ± 0.3	5.3 ± 0.2	CC(C)C [2-methylpropane] + CC(C)O
4.4 ± 0.2	4.3 ± 0.2	4.2 ± 0.2	4 ± 0.2	3.8 ± 0.2			C=C(C)C [2-methylpropene] + CC(C)O

Second part, the compound before the results:

Structure (SMILES)	activity coefficient (249.97 K)	activity coefficient (270.03 K)	activity coefficient (290 K)	activity coefficient (310 K)	activity coefficient (330 K)	activity coefficient (249.96 K)	activity coefficient (270.04 K)
CCCC [butane] + CC(C)O	5.2 ± 0.2	5.1 ± 0.2	5.1 ± 0.2	4.9 ± 0.2	4.6 ± 0.2		
C=CCC [1-butene] + CC(C)O	4.4 ± 0.2	4.4 ± 0.2	4.3 ± 0.2	4.1 ± 0.2	3.9 ± 0.2		
C/C=C/C [(E)-2-butene] + CC(C)O			4.2 ± 0.2	4.1 ± 0.2	3.9 ± 0.2	4.3 ± 0.2	4.3 ± 0.2
C=CC=C [1,3-butadiene] + CC(C)O	3.9 ± 0.2	3.8 ± 0.2	3.7 ± 0.2	3.5 ± 0.2	3.3 ± 0.2		
